In ChEMBL document CHEMBL1140461, “Design and synthesis of thiazole-5-hydroxamic acids as novel histone deacetylase inhibitors” (Bioorg Med Chem Lett, 2007) one finds GI50 and IC50 data, which are given here for 24 compounds.

SMILES strings stand for the structures.

Assay [1] deals with MCF7. Description: Antiproliferative activity against human MCF7 cells. Type of assay: functional.
In assay [2] the target is Histone deacetylase. In words: Inhibition of HDAC activity in HeLa cell nuclear extract by fluorescent assay. Type of assay: protein assay, Homo sapiens.

Usually GI50 stands for the concentration giving 50% growth inhibition. The low end stands for greater sensitivity of the cells, the high end for lower sensitivity of the cells. One may read the IC50 as the concentration that inhibits the measured activity by half. Higher therefore signals weaker potency in that assay. `O=C(NO)c1cnc(N2CCN(Cc3ccccc3)CC2)s1`: in assay [1], halving of growth (GI50) required 4 µM. Further, the IC50 in assay [2] is more than 100 µM.
`COc1ccc(S(=O)(=O)N2CCN(c3ncc(/C=C/C(=O)NO)s3)CC2)cc1OC` yielded a GI50 in assay [1] of 4 µM. Besides, the IC50 in assay [2] was 0.16 µM.
For `O=C(/C=C/c1cnc(N2CCN(S(=O)(=O)c3ccc4ccccc4c3)CC2)s1)NO`, in that order: 0.7 µM and 0.05 µM.
In the case of `O=C(/C=C/c1cnc(N2CCN(S(=O)(=O)c3ccccc3)CC2)s1)NO`, the GI50 in assay [1] amounted to 3 µM. This compound displayed an IC50 in assay [2] of 0.44 µM.
`O=C(NO)c1cnc(N2CCN(S(=O)(=O)c3ccc(C(F)(F)F)cc3)CC2)s1` registered a 50% growth inhibitory concentration (GI50) in assay [1] of 4 µM. The same compound displayed a 50% inhibitory concentration (IC50) in assay [2] of 2.6 µM.
For `O=C(NO)c1cnc(N2CCN(CCc3ccccc3)CC2)s1`, in that order: more than 100 µM and more than 100 µM.
`O=C(/C=C/c1cnc(N2CCN(S(=O)(=O)c3ccc(-c4ccccc4)cc3)CC2)s1)NO` had a GI50 in assay [1] of 15 µM. In assay [2], this compound showed an IC50 of 11 µM.
In turn, `O=C(NO)c1cnc(N2CCN(C(=O)c3ccccc3)CC2)s1` yielded a concentration for 50% growth inhibition (GI50) in assay [1] of 40 µM. The compound also came in with an IC50 in assay [2] of 3.5 µM.
`O=C(NO)c1cnc(N2CCN(S(=O)(=O)c3ccc([N+](=O)[O-])cc3)CC2)s1`: the GI50 in assay [1] stood at 10 µM. The IC50 in assay [2] was 0.4 µM.
For the compound `Cc1ccc(S(=O)(=O)N2CCN(c3ncc(C(=O)NO)s3)CC2)cc1`, in assay [1], the GI50 stood at 0.35 µM. Further, the concentration for half-maximal inhibition (IC50) in assay [2] is 0.09 µM.
The compound `O=C(/C=C/c1cnc(N2CCN(S(=O)(=O)c3ccc([N+](=O)[O-])cc3)CC2)s1)NO` yielded a GI50 in assay [1] of 5 µM. The compound further had an IC50 in assay [2] of 1.6 µM.
The like results for `CC(=O)N1CCN(c2ncc(C(=O)NO)s2)CC1` were, in that order, more than 100 µM and 2.8 µM.
The like results for `O=C(/C=C/c1cnc(N2CCN(S(=O)(=O)c3ccc(C(F)(F)F)cc3)CC2)s1)NO` were, in that order, 3 µM and 15 µM.
The compound `O=C(NO)c1cnc(N2CCN(C(=O)Cc3ccccc3)CC2)s1` had a 50% growth inhibitory concentration (GI50) in assay [1] of 20 µM. Also, the IC50 in assay [2] was 32 µM.
`CN1CCN(c2ncc(C(=O)NO)s2)CC1` showed a 50% growth inhibitory concentration (GI50) in assay [1] of more than 100 µM. This compound also had a concentration for half-maximal inhibition (IC50) in assay [2] of more than 100 µM.
On to `O=C(NO)c1cnc(N2CCN(S(=O)(=O)c3ccccc3)CC2)s1`, for which the GI50 in assay [1] amounted to 10 µM. In assay [2], this compound gave a 50% inhibitory concentration (IC50) of 0.57 µM.
Turning to `O=C(NO)c1cnc(N2CCN(S(=O)(=O)c3ccc(OC(F)(F)F)cc3)CC2)s1`, the GI50 in assay [1] amounted to 4 µM. Further, in assay [2], the IC50 came to 1.2 µM.
Regarding `O=C(/C=C/c1cnc(N2CCN(S(=O)(=O)c3ccc(F)cc3)CC2)s1)NO`, growth in assay [1] was halved (GI50) at 2.5 µM. Further, the IC50 in assay [2] was 4.7 µM.
In assay [1], `O=C(/C=C/c1cnc(N2CCN(S(=O)(=O)c3ccc(OC(F)(F)F)cc3)CC2)s1)NO` registered a GI50 of 6 µM. In addition, the IC50 in assay [2] is 3.2 µM.
Compound `O=C(NO)c1cnc(N2CCN(S(=O)(=O)c3ccc(F)cc3)CC2)s1` had a 50% growth inhibitory concentration (GI50) in assay [1] of 3.5 µM. The compound also registered an IC50 in assay [2] of 0.15 µM.
`O=C(NO)c1cnc(N2CCN(S(=O)(=O)c3ccc4ccccc4c3)CC2)s1` yielded a GI50 in assay [1] of 2 µM. In assay [2], the IC50 was 0.22 µM.
Consider `COc1ccc(S(=O)(=O)N2CCN(c3ncc(C(=O)NO)s3)CC2)cc1OC`, for which growth in assay [1] was halved (GI50) at 2 µM. In addition, the IC50 in assay [2] came to 0.07 µM.
`Cc1ccc(S(=O)(=O)N2CCN(c3ncc(/C=C/C(=O)NO)s3)CC2)cc1` returned a concentration for 50% growth inhibition (GI50) in assay [1] of 2 µM. Further, the IC50 in assay [2] came to 0.55 µM.
For the compound `O=C(NO)c1cnc(N2CCN(S(=O)(=O)c3ccc(-c4ccccc4)cc3)CC2)s1`, the GI50 in assay [1] turned out to be 1.8 µM. Moreover, the IC50 in assay [2] is 0.2 µM.
